The results in this text go back to the Kinase Knowledgebase extract (Sharma et al. 2016).

Each structure is given as a SMILES string.

For experiment [1], the target named is MAPK14 (human) (UniProt Q16539). In words: In vitro Inhibition of TNF-alpha Production in PBMC Cells.
In experiment [2] the target is MAPK14 (UniProt Q16539). Nature of the experiment: In vitro Inhibition of MAPK14 Kinase Activity.
The test system of experiment [3] is MAPK14 (BALB/cJ mice). In words: In vivo Inhibition of LPS-induced TNF-alpha Production. To be noted: dose or concentration not given here.

MAPK14 (human), sequence (Q16539 whole entry, looked up): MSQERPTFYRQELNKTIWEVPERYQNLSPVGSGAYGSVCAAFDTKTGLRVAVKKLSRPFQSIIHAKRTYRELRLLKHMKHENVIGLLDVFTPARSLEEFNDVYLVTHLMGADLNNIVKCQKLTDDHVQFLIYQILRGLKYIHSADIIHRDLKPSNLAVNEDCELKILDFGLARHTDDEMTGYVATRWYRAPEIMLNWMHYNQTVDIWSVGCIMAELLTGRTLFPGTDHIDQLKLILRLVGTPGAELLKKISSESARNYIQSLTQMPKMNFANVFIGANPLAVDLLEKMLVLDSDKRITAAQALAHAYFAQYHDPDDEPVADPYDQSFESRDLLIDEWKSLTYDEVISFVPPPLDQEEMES
MAPK14, sequence (Q16539 whole entry, looked up): as above

Regarding `COC(=O)c1c(-c2ccc(F)cc2)c(-c2ccncc2)c(N2CCN(C)CC2)n1C`, the results for the IC50 in experiment [1] and in experiment [2] were 95 nM and 2000 nM, respectively. Moreover, the inhibition in experiment [3] amounted to 89%.

Take `Cn1c(C(=O)C2CC2)c(-c2ccc(F)cc2)c(-c2ccncc2)c1N1CCN(C(=O)C2CC2)CC1`: the IC50 in experiment [1] is 36 nM; in experiment [2], 10000 nM.

With `COC(=O)C(=O)c1c(-c2ccc(F)cc2)c(-c2ccncc2)c(N2CCNCC2)n1C`, the values for the 50% inhibitory concentration (IC50) in experiment [1] and in experiment [2] were 28 nM and 10000 nM, respectively. Moreover, the inhibition in experiment [3] is 52%.

As for `COC(=O)c1c(-c2ccc(F)cc2)c(-c2ccncc2)c(N)n1C`, the IC50 in experiment [1] was determined as 51 nM; in experiment [2], 10000 nM. Also, the inhibition in experiment [3] worked out at 53.9%.

For `COC(=O)c1c(-c2ccc(F)cc2)c(-c2ccncc2)c(N2CCCC2)n1C`, the IC50 in experiment [1] is 17 nM; in experiment [2], 10000 nM. Besides, the inhibition in experiment [3] is -38%.

In the case of `COC(=O)c1c(-c2ccc(F)cc2)c(-c2ccncc2)c(N2CCOCC2)n1C`, the IC50 turned out to be 47 nM in experiment [1] and 10000 nM in experiment [2]. The inhibition in experiment [3] is -41%.

As for `Cn1c(N2CCCC2)c(-c2ccncc2)c(-c2ccc(F)cc2)c1C(C)(C)O`, the IC50 in experiment [1] is 192 nM; in experiment [2] it was 2000 nM. In addition, in experiment [3], the inhibition came to 37.7%.

With `CCCc1c(-c2ccnc(N[C@@H](C)c3ccccc3)n2)c(-c2ccc(F)cc2)cn1CCN1CCOCC1`, the IC50 in experiment [1] is 4 nM; in experiment [2] it was 10000 nM. Moreover, in experiment [3], the inhibition was -35%.

In the case of `CCOC(=O)c1c(-c2cc(F)cc(F)c2)c(-c2ccncc2)c(Br)n1C`, the IC50 in experiment [1] was 2720 nM; in experiment [2] it was over 10000 nM. For the same molecule, in experiment [3], the inhibition was -36%.

Turning to `COC(=O)c1c(-c2ccc(F)cc2)c(-c2ccncc2)c(N2CCNCC2)n1C`, the IC50 in experiment [1] was 33 nM; in experiment [2], 10000 nM. Moreover, the inhibition in experiment [3] amounted to 73%.

Regarding `CN1CCN(c2c(-c3ccncc3)c(-c3ccc(F)cc3)c(C#N)n2C)CC1`, the figures for the IC50 in experiment [1] and in experiment [2] were 80 nM and 2000 nM, respectively. In addition, in experiment [3], the inhibition stood at 47%.

Turning to `Fc1ccc(-c2c[nH]c(CN3CCc4ccccc4C3)c2-c2ccncc2)cc1`, the IC50 in experiment [1] was determined as 40 nM; in experiment [2] it was 2000 nM. Besides, the inhibition in experiment [3] stood at 63%.

With `CC(=O)c1c(-c2ccc(F)cc2)c(-c2ccncc2)c(N2CCN(C(C)=O)CC2)n1C`, the figures for the IC50 in experiment [1] and in experiment [2] were 43 nM and 2000 nM, respectively.

For the molecule `CC(=O)c1c(-c2ccc(F)cc2)c(-c2ccncc2)c(N2CCNCC2)n1C`, the IC50 in experiment [1] was 40 nM; in experiment [2], 10000 nM. For the same molecule, in experiment [3], the inhibition stood at 39%.

Regarding `CCCNC(=O)c1c(-c2ccc(F)cc2)c(-c2ccncc2)c(N2CCNCC2)n1C`, the IC50 in experiment [1] and in experiment [2] was 10000 nM in each case.

As for `COC(=O)c1c(-c2ccc(F)cc2)c(-c2ccncc2)c(NCCN(C)C)n1C`, the concentration for half-maximal inhibition (IC50) in experiment [1] was 98 nM. The inhibition in experiment [3] was -43%.

`CCOC(=O)c1c(-c2cc(F)cc(F)c2)c(-c2ccncc2)c(N2CCNCC2)n1C` returned an IC50 in experiment [1] of 93 nM. Besides, the inhibition in experiment [3] stood at 75%.

With `Fc1ccc(-c2c[nH]c(CN3CCNCC3)c2-c2ccncc2)cc1`, the IC50 in experiment [1] amounted to 63 nM. In addition, the inhibition in experiment [3] was -41%.

As for `O=C1CCn2c(Br)c(-c3ccncc3)c(-c3ccc(F)cc3)c21`, the half-inhibitory concentration (IC50) in experiment [1] worked out at 819 nM. In addition, in experiment [3], the inhibition amounted to 31%.

In turn, `CC(=O)c1c(-c2ccc(F)cc2)c(-c2ccncc2)c(N2CCN(C)CC2)n1C` had an IC50 in experiment [1] of 370 nM. Further, the inhibition in experiment [3] worked out at 40%.

Consider `COC(=O)c1c(-c2ccc(F)cc2)c(-c2ccncc2)c(NCCN2CCOCC2)n1C`, for which the IC50 in experiment [1] came to 50 nM. Also, in experiment [3], the inhibition was 44%.

In the case of `COC(=O)c1c(-c2cccc(F)c2)c(-c2ccncc2)c(N2CCNCC2)n1C`, the IC50 in experiment [1] amounted to 69 nM. In experiment [3], the inhibition is 49%.

In the case of `COC(=O)c1c(-c2ccc(F)cc2)c(-c2ccncc2)c(Nc2ccc(N(C)C)cc2)n1C`, the IC50 in experiment [1] was 118 nM; in experiment [2] it was over 10000 nM. In addition, the inhibition in experiment [3] was 15%.

In the case of `COC(=O)c1c(-c2ccc(F)cc2)c(-c2ccncc2)c(C#CCN2CCN(C)CC2)n1C`, in experiment [1], the IC50 was found to be 7.7 nM. In experiment [3], the inhibition was 57%.

For `COC(=O)c1c(-c2ccc(F)cc2)c(-c2ccncc2)cn1C(=O)OC`, the IC50 in experiment [1] was 23 nM. Further, in experiment [3], the inhibition is -22%.

The molecule `Cn1cc(-c2ccncc2)c(-c2ccc(F)cc2)c1-c1cnco1` gave an IC50 in experiment [1] of 59 nM. The inhibition in experiment [3] is 53%.

As to `COC(=O)c1c(-c2ccc(F)cc2)c(-c2ccncc2)c(N=CN(C)C)n1C`, the IC50 in experiment [1] stood at 5 nM. The inhibition in experiment [3] was 6%.

As to `CCOC(=O)c1c(-c2ccc(F)cc2)c(-c2ccncc2)c(N2CCNCC2)n1C`, the IC50 in experiment [1] worked out at 16 nM. Further, the inhibition in experiment [3] was 79%.

As to `Cn1cc(-c2ccncc2)c(-c2ccc(F)cc2)c1CNC(=O)Nc1ccccc1`, the IC50 in experiment [1] was 27 nM. Besides, the inhibition in experiment [3] was found to be 82%.

`CC(=O)N1CCN(c2c(-c3ccncc3)c(-c3ccc(F)cc3)c(C#N)n2C)CC1`: the figures for the half-maximal inhibitory concentration (IC50) in experiment [1] and in experiment [2] were 154 nM and 2000 nM, respectively. Moreover, the inhibition in experiment [3] came to 81%.

`CCN1C(=O)c2c(-c3ccncc3)c(-c3ccc(F)cc3)cn2C1=O` registered an IC50 in experiment [1] of 401 nM. Further, the inhibition in experiment [3] was 72%.

In experiment [1], `CCOC(=O)c1c(-c2ccc(F)cc2)c(-c2ccncc2)c(CCCN2CCOCC2)n1C` returned an IC50 of 756 nM. In addition, the inhibition in experiment [3] came to 34%.

As to `COC(=O)c1c(-c2ccc(F)cc2)c(-c2ccncc2)c(N2CCC(N)C2)n1C` (centres undefined), the IC50 in experiment [1] was 237 nM. Moreover, in experiment [3], the inhibition was 25%.

Take `CCOC(=O)c1c(-c2cc(F)cc(F)c2)c(-c2ccncc2)cn1C`: in experiment [1], the IC50 is 33 nM. In addition, the inhibition in experiment [3] is -31%.

`COC(=O)c1c(-c2ccncc2)c(-c2ccc(F)cc2)c(NCCc2ccccc2)n1C` showed an IC50 in experiment [1] of 1020 nM. Moreover, the inhibition in experiment [3] turned out to be 58%.

The molecule `CCn1cc(-c2ccncc2)c(-c2ccc(F)cc2)c1C(=O)OC` had an IC50 in experiment [1] of 108 nM. Besides, the inhibition in experiment [3] worked out at 53%.

`CCn1cc(-c2ccncc2)c(-c2ccc(F)cc2)c1CO` had an IC50 in experiment [1] of 70 nM. Besides, the inhibition in experiment [3] came out at 48%.

For `COC(=O)c1c(-c2ccc(F)cc2)c(-c2ccncc2)c(-c2cccc(NC(C)=O)c2)n1C`, the IC50 in experiment [1] came out at 2 nM. The inhibition in experiment [3] stood at 59%.

In turn, `COC(=O)c1c(-c2ccc(F)cc2)c(-c2ccncc2)c(N2CCN(CC3CC3)CC2)n1C` yielded an IC50 in experiment [1] of 269 nM. In experiment [3], the inhibition was found to be 66.3%.

Molecule `COC(=O)c1c(-c2ccc(F)cc2)c(-c2ccncc2)c(NCc2cccc(OC)c2)n1C` displayed an IC50 in experiment [1] of 407 nM. Further, the inhibition in experiment [3] came to 63%.

A word on the IC50: it is the point on the concentration scale where inhibition reaches its midpoint. Low values mean greater potency, high ones weaker potency. Broadly, the inhibition is the drop in the measured response relative to a control, in per cent.
